How the values were obtained:
[1] = The drug is tested on WLS-010 corresponding to human gut metagenome with ENA study accession number: PRJEB37062 and ENA sample accession number: ERS12561743 for biotransformation under anaerobic condition. The drug concentrations were measured over 9 timepoints collected between 0 and 24 hours of incubation by liquid-chromatography-coupled mass spectrometry (LC–MS); conditions: 2 µM
[2] = human gut metagenome, 24 h, 2 µM
[3] = human gut metagenome, 24 h, 2 µM; remark: listed apart in the source
[4] = The drug is tested on WLS-039 corresponding to human gut metagenome with ENA study accession number: PRJEB37062 and ENA sample accession number: ERS12561746 for biotransformation under anaerobic condition. The drug concentrations were measured over 9 timepoints collected between 0 and 24 hours of incubation by liquid-chromatography-coupled mass spectrometry (LC–MS); conditions: 2 µM
[5] = human gut metagenome, 24 h, 2 µM; remark: listed apart in the source
[6] = The drug is tested on WLS-038 corresponding to human gut metagenome with ENA study accession number: PRJEB37062 and ENA sample accession number: ERS12561745 for biotransformation under anaerobic condition. The drug concentrations were measured over 9 timepoints collected between 0 and 24 hours of incubation by liquid-chromatography-coupled mass spectrometry (LC–MS); conditions: 2 µM
[7] = human gut metagenome, 24 h, 2 µM; remark: listed apart in the source
[8] = The drug is tested on WLS-069 corresponding to human gut metagenome with ENA study accession number: PRJEB37062 and ENA sample accession number: ERS12561748 for biotransformation under anaerobic condition. The drug concentrations were measured over 9 timepoints collected between 0 and 24 hours of incubation by liquid-chromatography-coupled mass spectrometry (LC–MS); conditions: 2 µM
[9] = human gut metagenome, 24 h, 2 µM; remark: listed apart in the source
[10] = human gut metagenome, 24 h, 2 µM; remark: listed apart in the source
[11] = The drug is tested on WLS-350 corresponding to human gut metagenome with ENA study accession number: PRJEB37062 and ENA sample accession number: ERS12561789 for biotransformation under anaerobic condition. The drug concentrations were measured over 9 timepoints collected between 0 and 24 hours of incubation by liquid-chromatography-coupled mass spectrometry (LC–MS); conditions: 2 µM
[12] = The drug is tested on WLS-370 corresponding to human gut metagenome with ENA study accession number: PRJEB37062 and ENA sample accession number: ERS12561793 for biotransformation under anaerobic condition. The drug concentrations were measured over 9 timepoints collected between 0 and 24 hours of incubation by liquid-chromatography-coupled mass spectrometry (LC–MS); conditions: 2 µM
[13] = human gut metagenome, 24 h, 2 µM; remark: listed apart in the source
[14] = The drug is tested on WLS-310 corresponding to human gut metagenome with ENA study accession number: PRJEB37062 and ENA sample accession number: ERS12561785 for biotransformation under anaerobic condition. The drug concentrations were measured over 9 timepoints collected between 0 and 24 hours of incubation by liquid-chromatography-coupled mass spectrometry (LC–MS); conditions: 2 µM
[15] = The drug is tested on Z-022 corresponding to mouse gut metagenome with ENA study accession number: PRJEB37062 and ENA sample accession number: ERS12561821 for biotransformation under anaerobic condition. The drug concentrations were measured over 9 timepoints collected between 0 and 24 hours of incubation by liquid-chromatography-coupled mass spectrometry (LC–MS); conditions: 2 µM
[16] = human gut metagenome, 24 h, 2 µM; remark: listed apart in the source
[17] = The drug is tested on Z-005 corresponding to metagenome with ENA study accession number: PRJEB37062 and ENA sample accession number: ERS12561805 for biotransformation under anaerobic condition. The drug concentrations were measured over 9 timepoints collected between 0 and 24 hours of incubation by liquid-chromatography-coupled mass spectrometry (LC–MS); conditions: 2 µM
[18] = human gut metagenome, 24 h, 2 µM; remark: listed apart in the source
[19] = human gut metagenome, 24 h, 2 µM; remark: listed apart in the source
[20] = human gut metagenome, 24 h, 2 µM; remark: listed apart in the source
Note: call rule not given here.

| Bacterial Biotransformation [1] | Bacterial Biotransformation [2] | Bacterial Biotransformation [3] | Bacterial Biotransformation [4] | Bacterial Biotransformation [5] | Bacterial Biotransformation [6] | Bacterial Biotransformation [7] | Bacterial Biotransformation [8] | Bacterial Biotransformation [9] | Bacterial Biotransformation [10] | Bacterial Biotransformation [11] | Bacterial Biotransformation [12] | Bacterial Biotransformation [13] | Bacterial Biotransformation [14] | Bacterial Biotransformation [15] | Bacterial Biotransformation [16] | Bacterial Biotransformation [17] | Bacterial Biotransformation [18] | Bacterial Biotransformation [19] | Bacterial Biotransformation [20] | Compound |
| --- | --- | --- | --- | --- | --- | --- | --- | --- | --- | --- | --- | --- | --- | --- | --- | --- | --- | --- | --- | --- |
| Compound metabolized | Compound metabolized | Compound metabolized | Compound metabolized | Compound metabolized | Compound metabolized | Compound metabolized | Compound metabolized | Compound metabolized | Compound metabolized | Compound metabolized | Compound metabolized | Compound metabolized | Compound metabolized | Compound metabolized | Compound metabolized | Compound metabolized | Compound metabolized | Compound metabolized | Compound metabolized | NC(CO)(CO)CO.O=C(c1ccccc1)c1ccc2n1CCC2C(=O)O (stereo not given) [KETOROLAC TROMETHAMINE] |
| Compound NOT metabolized | Compound NOT metabolized | Compound NOT metabolized | Compound NOT metabolized | Compound metabolized | Compound NOT metabolized | Compound NOT metabolized | Compound NOT metabolized | Compound NOT metabolized | Compound NOT metabolized | Compound NOT metabolized | Compound NOT metabolized | Compound metabolized | Compound NOT metabolized | Compound metabolized | Compound NOT metabolized | Compound NOT metabolized | Compound NOT metabolized | Compound NOT metabolized | Compound NOT metabolized | CC[C@H](C)C(=O)O[C@H]1C[C@@H](C)C=C2C=C[C@H](C)[C@H](CC[C@@H]3C[C@@H](O)CC(=O)O3)[C@H]21 [LOVASTATIN] |
| Compound NOT metabolized | Compound metabolized | Compound NOT metabolized | Compound NOT metabolized | Compound metabolized | Compound NOT metabolized | Compound NOT metabolized | Compound NOT metabolized | Compound NOT metabolized | Compound NOT metabolized | Compound NOT metabolized | Compound NOT metabolized | Compound NOT metabolized | Compound NOT metabolized | Compound metabolized | Compound NOT metabolized | Compound NOT metabolized | Compound NOT metabolized | Compound NOT metabolized | Compound NOT metabolized | CN1C(=O)CC(C)(c2ccccc2)C1=O (stereo not given) [METHSUXIMIDE] |
| Compound NOT metabolized | Compound NOT metabolized | Compound NOT metabolized | Compound NOT metabolized | Compound NOT metabolized | Compound NOT metabolized | Compound NOT metabolized | Compound NOT metabolized | Compound NOT metabolized | Compound NOT metabolized | Compound NOT metabolized | Compound NOT metabolized | Compound NOT metabolized | Compound NOT metabolized | Compound metabolized | Compound NOT metabolized | Compound NOT metabolized | Compound NOT metabolized | Compound NOT metabolized | Compound NOT metabolized | COc1ccccc1N1CCN(CC(O)COc2cccc3ccccc23)CC1 (stereo not given) [NAFTOPIDIL] |
| Compound NOT metabolized | Compound metabolized | Compound NOT metabolized | Compound NOT metabolized | Compound metabolized | Compound NOT metabolized | Compound metabolized | Compound metabolized | Compound NOT metabolized | Compound metabolized | Compound NOT metabolized | Compound NOT metabolized | Compound metabolized | Compound metabolized | Compound metabolized | Compound NOT metabolized | Compound NOT metabolized | Compound NOT metabolized | Compound metabolized | Compound metabolized | CNC(=C[N+](=O)[O-])NCCSCc1csc(CN(C)C)n1 [NIZATIDINE] |
